{"source": "patent US20040176320A1", "about": "“Use of at least one glycoinhibitor substance” (priority 2001, published 2004)", "key": {"[1]": {"test_system": "β-galactosidase from jack beans", "test": "Inhibition of β-galactosidase cleavage of Galβ4GlcNAcβ3Galβ4Glc", "format": "biochemical", "conditions": "55 mM inhibitor, 100 mU enzyme, 50 mM sodium citrate pH 4.0, 37° C., 8 h; no unreacted substrate without inhibitor", "source_text": "Inhibition of β-galactosidase enzyme by D-galactono-1,4-lactone (Sigma, St Louis, USA). β-galactosidase from jack beans (EC 3.2.1.23, Sigma, St Louis, USA) is used to cleave terminal galactose from model oligosaccharide Galβ4GlcNAcβ3Galβ4Glc (Sigma, St Louis, USA). It is noted that the transition state analog galactosidase inhibitor is active against many galactosidases (Huber and Brockbank, 1987, actual active form is probably D-galactono-1,5-lactone) and that the jack bean β-galactosidase cleaves similarily other type 2 lactosamines such as e.g. Galβ4GlcNAcβ3Galβ4GlcNAcβ3Galβ4Glc, specific conditions are needed to cleave Galβ3GlcNAc-sequences or glycospingolipids. In Reaction 1, 25 nmol of Galβ4GlcNAcβ3Galβ4Glc is incubated with 100 mU of β-galactosidase from jack beans in-45 μl of 50 mM sodium citrate pH 4.0, at 37° C., for 8 h. Reaction 2 has the same composition, but contains additionally 55 mM D-galactono-1,4-lactone and it is incubated under the same condition for 8 h. The major products from Reaction 1 are Gal and GlcNAcβ3Galβ4Glc, while unreacted substrate is generally not observable by HPLC and mass spectrometric analysis, while Reaction 2 contains besides these typically more than 50% of uncleaved Galβ4GlcNAcβ3Galβ4Glc."}, "Helicobacter pylori [2]": {"test_system": "Helicobacter pylori", "test": "TLC bacterial overlay assay: binding of 35S-labeled Helicobacter pylori to glycosphingolipids", "conditions": "for Helicobacter pylori binding activity (in words): TLC overlay; for binding frequency for Helicobacter pylori: strain 032, total number of plates about 100; for binding compared between Helicobacter pylori strains: strains 17875, 002 and 032"}, "[3]": {"molecular_target": "T1, sialidase from Vibrio cholerae (Vibrio cholerae serotype O1, UniProt P0C6E9)", "T1 construct": "purchased Behringwerke, Marburg, Germany", "T1 sequence (P0C6E9 25-781)": "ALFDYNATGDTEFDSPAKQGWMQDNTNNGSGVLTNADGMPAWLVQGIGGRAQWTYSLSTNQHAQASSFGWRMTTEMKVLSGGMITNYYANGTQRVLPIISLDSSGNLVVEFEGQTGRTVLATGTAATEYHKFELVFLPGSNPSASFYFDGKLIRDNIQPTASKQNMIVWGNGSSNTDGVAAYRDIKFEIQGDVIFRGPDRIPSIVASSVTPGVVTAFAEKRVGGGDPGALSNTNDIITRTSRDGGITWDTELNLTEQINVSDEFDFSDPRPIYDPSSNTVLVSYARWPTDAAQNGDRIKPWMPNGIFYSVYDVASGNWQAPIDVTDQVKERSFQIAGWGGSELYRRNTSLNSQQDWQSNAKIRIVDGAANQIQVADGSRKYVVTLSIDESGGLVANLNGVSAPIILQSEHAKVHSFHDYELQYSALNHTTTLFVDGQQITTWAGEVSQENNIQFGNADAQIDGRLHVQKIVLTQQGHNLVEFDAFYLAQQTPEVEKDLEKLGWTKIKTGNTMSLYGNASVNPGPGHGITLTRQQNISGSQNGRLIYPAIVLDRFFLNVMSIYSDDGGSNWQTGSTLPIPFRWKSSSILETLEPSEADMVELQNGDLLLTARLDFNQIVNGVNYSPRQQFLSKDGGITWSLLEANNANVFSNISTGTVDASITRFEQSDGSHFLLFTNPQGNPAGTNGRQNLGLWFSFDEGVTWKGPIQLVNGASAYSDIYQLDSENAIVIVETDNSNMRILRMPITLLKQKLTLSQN", "test": "Inhibition of sialidase cleavage of Neu5Acα3Galβ4Glc", "format": "biochemical", "conditions": "saturating concentrations"}, "Helicobacter pylori [4]": {"test_system": "Helicobacter pylori", "conditions": "human gastrointestinal cell lines (Simon et al., 1999); cited from earlier work"}, "Helicobacter pylori [5]": {"test_system": "Helicobacter pylori", "conditions": "rhesus monkey (Mysore et al., 2000); cited from earlier work"}, "[6]": {"conditions": "dilution series, semi-quantitative TLC overlay"}}, "note": "Entries after “also recorded” stand apart in the source; their conditions may differ."}
{"molecule": "O=C1O[C@@H]([C@H](O)CO)[C@H](O)[C@H]1O", "note": "[D-galactono-1,4-lactone]", "values": [{"measurement": "uncleaved Galβ4GlcNAcβ3Galβ4Glc", "setting": "[1]", "value": "more than 50%"}]}
{"molecule": "CCCCCCCCCCCCCCCCc1ccc(NC[C@H](O)[C@@H](O)[C@H](O[C@@H]2O[C@H](CO)[C@H](O)[C@H](O[C@@H]3O[C@H](CO)[C@@H](O[C@@H]4O[C@H](CO)[C@H](O)[C@H](O[C@@H]5O[C@H](CO)[C@@H](O)[C@H](O)[C@H]5NC(C)=O)[C@H]4O)[C@H](O)[C@H]3NC(C)=O)[C@H]2O)[C@H](O)CO)cc1", "note": "[GlcNAcβ3Galβ4GlcNAcβ3Galβ4Glc(red)-HDA]", "values": [{"measurement": "Helicobacter pylori binding activity (in words)", "setting": "Helicobacter pylori [2]", "value": "observable binding activity"}]}
{"molecule": "CC(=O)N[C@H]1[C@H]([C@H](O)[C@H](O)CO)OC(C(=O)O)=C[C@@H]1O", "note": "[Neu5Ac2en, 2,3-anhydro-2-deoxy-N-acetylneuraminic acid]", "values": [{"measurement": "inhibition of the enzyme (in words)", "setting": "[3]", "value": "very effectively inhibited"}]}
{"molecule": "CC(=O)N[C@H]1[C@H]([C@H](O)[C@H](O)CO)O[C@@](O[C@H]2[C@@H](O)[C@@H](CO)O[C@@H](O[C@H]3[C@H](O)[C@@H](O)C(O)O[C@@H]3CO)[C@@H]2O)(C(=O)O)C[C@@H]1O", "note": "(stereo partly shown) [Sialyl-lactose]", "values": [{"measurement": "inhibition of Helicobacter pylori binding to cell lines", "setting": "Helicobacter pylori [4]", "value": "inhibits Helicobacter pylori binding"}, {"measurement": "efficacy in animal model of the infection", "setting": "Helicobacter pylori [5]", "value": "effective"}]}
{"molecule": "Fucα2Galβ4GlcNAcβ3Galβ4Glcβ1Cer [No. 18]", "values": [{"measurement": "Helicobacter pylori binding activity (in words)", "setting": "Helicobacter pylori [2]", "value": "absence of binding"}]}
{"molecule": "GalNAcα3(Fucα2)Galβ4GlcNAcβ3Galβ4Glcβ1Cer [No. 22]", "values": [{"measurement": "Helicobacter pylori binding activity (in words)", "setting": "Helicobacter pylori [2]", "value": "non-binding"}]}
{"molecule": "GalNAcβ3Galα3Galβ4GlcNAcβ3Galβ4Glcβ1Cer [No. 25]", "values": [{"measurement": "Helicobacter pylori binding activity (in words)", "setting": "Helicobacter pylori [2]", "value": "non-binding"}]}
{"molecule": "GalNAcβ3Galβ4GlcNAcβ3Galβ4Glcβ1Cer [No. 11]", "values": [{"measurement": "Helicobacter pylori binding activity (in words)", "setting": "Helicobacter pylori [2]", "value": "binding was also found"}]}
{"molecule": "Galα3(Fucα2)Galβ4GlcNAcβ3Galβ4Glcβ1Cer [No. 23]", "values": [{"measurement": "Helicobacter pylori binding activity (in words)", "setting": "Helicobacter pylori [2]", "value": "non-binding"}]}
{"molecule": "Galα3Galβ4GlcNAcβ3Galβ4Glcβ1Cer [No. 13]", "values": [{"measurement": "Helicobacter pylori binding activity (in words)", "setting": "Helicobacter pylori [2]", "value": "binding-active"}]}
{"molecule": "Galα4Galβ4GlcNAcβ3Galβ4Glcβ1Cer [No. 15]", "values": [{"measurement": "Helicobacter pylori binding activity (in words)", "setting": "Helicobacter pylori [2]", "value": "absence of binding"}]}
{"molecule": "Galβ4GlcNAcβ3Galβ4GlcNAcβ3Galβ4Glcβ1Cer [No. 21]", "values": [{"measurement": "Helicobacter pylori binding activity (in words)", "setting": "Helicobacter pylori [2]", "value": "displayed binding activity"}, {"measurement": "amount in which glycolipid bound Helicobacter pylori", "setting": "Helicobacter pylori [2]; [6]", "value": "~0.2 nmoles of glycolipid/spot"}, {"measurement": "binding frequency for Helicobacter pylori", "setting": "Helicobacter pylori [2]", "value": "~90", "unit": "%"}, {"measurement": "binding compared between Helicobacter pylori strains", "setting": "Helicobacter pylori [2]", "value": "similar"}]}
{"molecule": "Galβ4GlcNAcβ3Galβ4Glcβ1Cer [No. 5]", "values": [{"measurement": "Helicobacter pylori binding activity (in words)", "setting": "Helicobacter pylori [2]", "value": "displayed binding activity"}, {"measurement": "amount in which glycolipid bound Helicobacter pylori", "setting": "Helicobacter pylori [2]; [6]", "value": "~0.3 nmoles of glycolipid/spot"}, {"measurement": "binding compared between Helicobacter pylori strains", "setting": "Helicobacter pylori [2]", "value": "similar"}]}
{"molecule": "Galβ4GlcβCer [diglycosylceramide]", "values": [{"measurement": "Helicobacter pylori binding activity (in words)", "setting": "Helicobacter pylori [2]", "value": "displayed binding activity"}]}
{"molecule": "GlcNAcβ3Galβ4GlcNAcβ3Galβ4Glcβ1Cer [No. 10]", "values": [{"measurement": "Helicobacter pylori binding activity (in words)", "setting": "Helicobacter pylori [2]; listed as pentaglycosylceramide", "value": "strong activity; also recorded: displayed binding activity; also recorded: highly active"}, {"measurement": "amount giving a positive response on TLC plates", "setting": "Helicobacter pylori [2]; dilution series, semi-quantitative TLC overlay, mean value from 7 experiments", "value": 0.039, "unit": "nmol/spot"}, {"measurement": "binding frequency for Helicobacter pylori", "setting": "Helicobacter pylori [2]", "value": "~90", "unit": "%"}, {"measurement": "binding compared between Helicobacter pylori strains", "setting": "Helicobacter pylori [2]", "value": "similar"}]}
{"molecule": "GlcNAcβ3Galβ4Glcβ1Cer [No. 1]", "values": [{"measurement": "Helicobacter pylori binding activity (in words)", "setting": "Helicobacter pylori [2]", "value": "inactive"}]}
{"molecule": "NeuAcα3GalNAcβ3Galβ4GlcNAcβ3Galβ4Glcβ1Cer [No. 24]", "values": [{"measurement": "Helicobacter pylori binding activity (in words)", "setting": "Helicobacter pylori [2]", "value": "non-binding"}]}
{"molecule": "NeuGcα3Galβ4GlcNAcβ3Galβ4GlcNAcβ3Galβ4Glcβ1Cer [No. 27]", "values": [{"measurement": "binding by Helicobacter pylori isolates", "setting": "Helicobacter pylori [2]; about 60 isolates tested", "value": "bound by most Helicobacter pylori isolates"}]}
{"molecule": "maltoheptaose(red)-HDA [maltoheptaose/red)-HDA, reference compound]", "values": [{"measurement": "Helicobacter pylori binding activity (in words)", "setting": "Helicobacter pylori [2]", "value": "totally inactive"}]}
